From patent US11026875B2, “Skin restoration product” (Givaudan SA, priority 2016, dated 2021) come the findings set out here.

This experiment has as its system normal human dermal fibroblasts (NHFs). The experiment is described as follows: N-sulfated GAG (heparan sulfate) synthesis (production + liberation) by normal human dermal fibroblasts. Format: cell-based. As to conditions: 72 h, cells pellets + supernatants, reported to total proteins, composition at 1 mM. The protocol:
The composition was applied at 0.5 and 1 mM to normal human dermal fibroblasts (NHFs) over a period of 72 hours. Normal human fibroblasts (NHFs), were isolated from the skin dermis of Caucasian women donors (plastic surgery). Cells were seeded at 80 000 fibroblasts/well in 24-wells plates and were left to adhere for 24 hours at 37° C./5% CO2 in complete DMEM (Dulbecco's Modified Eagle Medium) (with antibiotics and FBS, fetal bovine serum).
The cells were then treated with the composition in non-supplemented medium (without FBS) for 72 hours and incubated at 37° C./5% CO2, and then total sGAG (sulfated Glycosaminoglycans) and HS (Heparan sulfate, or N-sulfated GAG) were dosed in culture supernatants and cells pellets (total proteins were dosed in cells pellets). Each product concentration was tested in duplicate. Furthermore, dosages were reported as a proportion of total amount of proteins. At the end of treatment, supernatants were collected. Cells were lysed in a papain containing buffer (Papaya latex Sigma P3125). Cells extracts were collected and centrifuged. Supernatants and cells pellets were dosed for sGAG, HS, or total proteins.
sGAG and HS dosage principles: Total sulfated GAG (sGAG), were dosed using the Blyscan™ sGAG Assay kit (Biocolor B1000 or B3000). The Blyscan™ assay is a quantitative dye-binding method for the analysis of sulfated proteoglycans and glycosaminoglycans (sGAG). The dye label used in the assay is 1,9-dimethylmethylene blue and the dye is employed under conditions that provide a specific label for the sulfated polysaccharide component of proteoglycans or the protein free sulfated glycosaminoglycan chains. The method consists of adding a specific blue dye reagent to an aliquot of supernatants or cells pellets which makes sGAG precipitate (a complex dye-sGAG is formed and precipitates out from the soluble unbound dye).
Centrifugation permitted the collection of a pellet of precipitate at the tube bottom. After having carefully drained the dye, the pellet was solubilized in a dissociation reagent (5-10% Sodium dodecyl sulphate). Absorbance was read at 656 nm in duplicate, in a 96-wells microplate. […] After this reaction, O-sGAG level can be measured using the protocol as normal, and N-sulfated content was subsequently calculated from the difference between the total sGAG value (determined earlier) and the O-sGAG content.
Total proteins dosage principle: Total proteins dosage in cells pellets was performed in parallel by colorimetric method based on bicinchoninic acid (BCA). […] The amount of reduction and of BCA-Cu^+ complex is proportional to the protein concentration present and is quantified by spectrophotometric lecture at 570 nm. […]

For the substance “TGF beta: transforming growth factor beta, used as positive control”, the “N-sulfated GAG synthesis improvement” value is, setting by setting: (donor one fibroblasts) “+43%”; (donor one fibroblasts, listed as TGFβ) “+43%”; (donor two fibroblasts) “+24%”; (donor two fibroblasts, listed as TGFβ) “+24%”.
